Values joined by “and” are separate entries in the source; they are usually repeats but may differ in a detail not shown here. Identical values can stand only once.
Assays:
BRD2 = experiment: In-Cell Western for BRD2 levels in Hep G2 cells; type: cell-based
Summary of the method: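 Hep G2 cells were treated with compound for the indicated time and concentration. After fixation and permeabilisation, BRD2 was immunostained and read by near-infrared imaging. BRD2 signal was normalised to vinculin.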

BRD4 = biological target: T1, BRD4 (Homo sapiens, UniProt O60885); experiment: BRD4 levels by Western blot in Jurkat cells; type: cell-based; details: for degradation of BRD4: 3 µM, 6 h treatment
T1 construct: endogenous in cells; host or cells: Jurkat
Experimental: Cells were washed with PBS and lysed in lysis buffer (50 mM Tris-HCl, pH 7.4, 150 mM NaCl, 1% Triton X-100, 1% sodium deoxycholate, 0.1% SDS) with complete protease inhibitor cocktail (Roche, 11836170001) for 30 min on ice. For Ramos cells, cell pellets were lysed in lysis buffer (50 mM Tris-HCl, pH 8, 150 mM NaCl, 1% NP-40, 0.5% sodium deoxycholate) with complete protease inhibitor cocktail. After centrifugation at 16,000 x g, the supernatant was transferred into a new tube and the protein concentration was determined by DC protein assay (BIO-RAD, 5000116). Proteins were separated by SDS-PAGE and transferred to a PVDF membrane (Thermo scientific, 0.45 μm, 88518). For PDEδ, BRD2, GAPDH, BRD4, Vinculin and BTK, the membranes were blocked with Intercept® Blocking Buffer (LI-COR Biosciences, 927-70001) at room temperature for 1 h. The primary antibodies for these proteins were diluted with Intercept® Blocking Buffer (1:500 for PDEδ, 1:3000 for Vinculin, and 1:1000 for other proteins) and incubated with the membranes overnight at 4 °C. Membranes were washed with PBS + 0.1% Tween 20 (PBS-T) five times and incubated with secondary antibodies conjugated to IRDye® Infrared Fluorescent Dyes (1:5000, LI-COR Biosciences) at room temperature for 1 h with protection from light. After washing the membrane, signals were visualized using the ChemiDoc MP Imaging System (BIO-RAD Laboratories). For detection of LC3B, BRD3, BLK, DCAF11, DDB1 RBX1, FIP200, V5- and FLAG-Tag the membranes were blocked with 5% milk in PBS-T at room temperature for 1 h. The primary antibodies for these proteins were diluted in 5% milk in PBS-T buffer (1:200 for BRD3, 1:1000 for other proteins) and incubated with the membranes overnight at 4 °C. Membranes were washed with PBS-T five times and incubated with HRP secondary antibodies (1:1500) at room temperature for 1 h. After washing the membrane, protein detection was performed using Western blotting detection reagent (Thermo Scientific, 34095) and the ChemiDoc MP Imaging System (BIO-RAD). Relative band intensities were quantified using Image Lab (BIO-RAD).

| SMILES | BRD2 depletion by In-Cell Western (BRD2; Hep G2 cells, 4 h) | degradation of BRD4 (BRD4) | hook effect for BRD4 (BRD4; 6 h, up to 50 µM concentration) | BRD2/Vinculin intensity (relative to control group) (BRD2; Hep G2 cells, pretreated with compound at 30 μM 1 h, then 9 (10 μM, 4 h), single repeats, Fig. 4h) | Value (Mean ± SD): Relative BRD2 levels remaining in Hep G2 cells after treatment with compounds followed by treatment with 9, with DMSO control for normalization (BRD2; qualitative ICW assay, pretreated at 30 μM 1 h, then 9 (10 μM, 4 h), Supplementary Table 1) |
| --- | --- | --- | --- | --- | --- |
| Cc1sc2c(c1C)C(c1ccc(Cl)cc1)=N[C@@H](CC(=O)NCCOCCOCCOCCOCCNC(=O)COc1c(Br)cc(/C=C3\C(=O)Nc4ccc(Br)cc43)cc1Br)c1nnc(C)n1-2 [Compound 9] | dose-dependent depletion of BRD2 | potent degradation activity | almost no hook effect |  |  |
| O=C1Nc2ccc(Br)cc2C1=Cc1cc(Br)c(O)c(Br)c1 [Compound 2] |  |  |  | 45.5673 and 52.7494 and 40.9253 and 42.2632 and 42.726 | 44.85 ± 4.23 |
| Cc1sc2c(c1C)C(c1ccc(Cl)cc1)=NC(CC(=O)NCCOCCOCCOCCOc1c(Br)cc(C=C3C(=O)Nc4ccc(Br)cc43)cc1Br)c1nnc(C)n1-2 (stereo not drawn) [Compound 10] |  | potent degradation activity |  |  |  |

— publication PMC10689823, “Discovery of a Drug-like, Natural Product-Inspired DCAF11 Ligand Chemotype” (Nature Communications, 2023)
